{"source": "patent US20140286868A1", "about": "“IMMORTALIZED HUMAN PROSTATE CELL LINES” (Tuskegee University, priority 2011, published 2014)", "key": {"RC-77T/E cells": {"system": "RC-77T/E cells", "experiment": "Androgen sensitivity: cell proliferation by MTT assay, RC-77T/E cells", "type": "cell-based, human", "details": "4 days", "method": "(§1) Since androgen receptor expression was observed both cell lines, an experiment was conducted to determine the effects of androgen stimulation on the growth of RC-77N/E and RC-77T/E cells. Cells were grown in serum-free K-SFM at different doses of Methyltrienolone (R1881), a synthetic androgen, for 4 days.\n(§2) In this experiment, 2×10^4 cells per well of each line were grown in serum-free K-SFM with 0.1% BSA in the presence of 0, 0.1, 1.0, 10.0 and 100.0 nM for 4 days. K-SFM was supplemented with or without Methyltrienolone (R1881) (obtained from Perkin-Elmer, Waltham, Mass.), at concentrations of 0.1, 1, 10 and 100 nM, respectively. Cell proliferation was determined by MTT assay according to a procedure as generally described by Wells et al. (“Luteinizing hormone-releasing hormone agonist limits DU-145 prostate cancer growth by attenuating epidermal growth factor receptor signaling.” Clin. Cancer Res. 8: 1251-1257, 2002.).\n(§3) The results from this experiment are illustrated in the chart of FIG. 4, with percent growth being determined by the number of cell counts being expressed as the mean value of triplicate observation. […] Further, the RC-77T/E cells were found responsive to 0.1 nM R1881, while RC-77N/E cells were only responsive at the higher dosage of 1.0 nM."}, "RC-77N/E cells": {"system": "RC-77N/E cells", "experiment": "Androgen sensitivity: cell proliferation by MTT assay, RC-77N/E cells", "type": "cell-based, human", "details": "4 days", "method": "as §1, §2, §3"}, "[1]": {"details": "1.0 nM R1881, serum-free K-SFM with 0.1% BSA"}, "[2]": {"details": "100.0 nM R1881, serum-free K-SFM with 0.1% BSA"}}, "data": [{"smiles": "C[C@]1(O)CC[C@H]2[C@@H]3CCC4=CC(=O)CCC4=C3C=C[C@@]21C", "note": "[R1881, Methyltrienolone]", "values": [{"measurement": "cell growth response to androgen stimulation", "setting": "RC-77T/E cells; 0.1 nM R1881, serum-free K-SFM with 0.1% BSA", "value": "responsive"}, {"measurement": "cell growth", "setting": "RC-77T/E cells; [1]", "value": "Significant stimulation in cell growth"}, {"measurement": "cell growth", "setting": "RC-77T/E cells; [2]", "value": "inhibition of cell growth"}, {"measurement": "cell growth", "setting": "RC-77N/E cells; [1]", "value": "Significant stimulation in cell growth"}, {"measurement": "cell growth", "setting": "RC-77N/E cells; [2]", "value": "inhibition of cell growth"}]}]}
